Consider two compounds from US20180353445A1, “METHODS AND COMPOSITIONS RELATING TO PROTEASOME INHIBITOR RESISTANCE” (Whitehead Institute for Biomedical Research, priority 2017, published 2018).

One experiment deals with MM.1S tumors. Kind of experiment: MM.1S luciferase multiple myeloma model in SCID mice. The conditions noted are these: elesclomol 28mg/kg with bortezomib 0.25mg/kg. It counts as in vivo, mouse. How it is done: FIGS. 54A-54D: Inhibiting the glycolysis-OXPHOS shift with elesclomol is beneficial to proteasome inhibitor treatment in a mouse model of multiple myeloma. (FIG. 54A) provides a schematic of the experimental outline. Mice were injected with MM .'S luciferase expressing cells. Upon tumor formation as judged by BLI signal intensity, treatment with elesclomol (28mg/kg), bortezomib (0.25mg/kg) or the combination (Combo) was initiated (day 0). At day 15, elesclomol was added to the treatment of one of the aroups that had received only bortezomib from day 0 to day 15 (combo-delayed group). […] N=5 per aroup. *** p<0.001.
FIGS. 60A-60B: Inhibiting the glycolysis-OXPHOS shift, with elesclomol is beneficial to proteasome inhibitor treatment in a mouse model of multiple myeloma.

The test system of experiment [1] is T47D cells. Kind of experiment: Competition co-culture of TurboRFP PSMD2 shRNA and GFP control shRNA T47D cells, FACS/microscopy. Format: cell-based, human. The conditions noted are these: 5 nM, 48 hours. Here is the method:
We created two cell lines—one line that expresses red fluorescent protein (turboRFP) and the doxycycline-inducible PSMD2-targeting shRNA and another line that expresses green fluorescent protein (GFP) and a doxycycline-inducible control shRNA (FIG. 6A). First, we induced shRNA expression with doxycycline for 48 hours. After recovery, we mixed shPSMD2-RFP and shControl-GFP cells at different ratios (either 1:1, 1:2, 1:5 or 1:10), adding the cells with reduced PSMD2 as the minority subpopulation. Twenty-four hours after plating, we treated these mixed populations of cells for 48 hours with increasing concentrations of bortezomib (5, 7.5 or 10 nM). We allowed the cells to recover in the absence of bortezomib and then we quantified the red and green cells by FACS analysis (FIG. 6A) and captured representative images by fluorescence microscopy (FIG. 6B),
The experiment described in Example 10 was repeated with minor differences using a panel of different proteasome inhibitors: MLN2238, MLN9708, and oprozomib T47D cells harboring a doxycycline inducible control shRNA (GFP) or a doxycycline-inducible PSMD2 shRNA (TurboRFP) were incubated with doxycycline for 3 days. Cells were collected, counted, and plated at a 1:10 ratio of TurboRFP-expressing PSMD2 shRNA cells/GFP expression control shRNA cells in the absence of Dox. Proteasome inhibitors were added at the specified concentrations and cells were maintained in culture. Cells were allowed to recover in the absence of the proteasome inhibitor and then analyzed by FACS (FIG. 8B, top) or visualized by microscopy (FIG. 8B, bottom). In the absence of proteasome inhibitors, the initial plating ratio of these cells (1:10) was maintained over the duration of the experiment (FIG. 8B). […]
Visualization and FACS analysis of GFP/RFP levels—cells were trypsinized in 100 μL Accumax® solution and further diluted into 100 μl PBSx1. The number of cells with red or areen fluorescent proteins was measured by MACSQuant® VYB according to manufactures protocol. […]

For experiment [2], the system named is T47D cells. Briefly: Cell viability, T47D cells with doxycycline-inducible PSMD2 shRNA (KD) vs control. Format: cell-based, human.

Turning to `CN(NC(=O)CC(=O)NN(C)C(=S)c1ccccc1)C(=S)c1ccccc1` [elesclomol], in the experiment on MM.1S tumors, the “effect on proteasome inhibitor treatment in a mouse model of multiple myeloma” value was “beneficial”.

With `CC(C)C[C@H](NC(=O)[C@H](Cc1ccccc1)NC(=O)c1cnccn1)B(O)O` [bortezomib], the “shift of surviving population toward PSMD2 shRNA cells” value with T47D cells [1] is listed as “substantially shifted the populations of surviving cells”. For the same compound, the “resistance of cells harboring PSMD2 shRNA vs parental line (EC50)” value with T47D cells [2] (T47D, transient PSMD2 reduction) is listed as “EC50 values increased considerably”. The “resistance after transient reduction of PSMD2” value with T47D cells [2] (doxycycline-regulated PSMD2 shRNA) is recorded as “significantly increased resistance”.
